How the values were obtained:
[1] = target: Calcium/calmodulin-dependent protein kinase type II subunit alpha (Homo sapiens) (UniProt Q9UQM7); details: Compound concentration 1000.0 nM
[2] = target: Serine/threonine-protein kinase OSR1 (Homo sapiens) (UniProt O95747); details: Compound concentration 1000.0 nM
[3] = target: Dual specificity mitogen-activated protein kinase kinase 1 (Homo sapiens) (UniProt Q02750); details: Compound concentration 1000.0 nM
[4] = target: Serine/threonine-protein kinase tousled-like 1 (Homo sapiens) (UniProt Q9UKI8); details: Compound concentration 1000.0 nM
[5] = target: TGF-beta receptor type-1 (Homo sapiens) (UniProt P36897); details: Compound concentration 1000.0 nM
[6] = system: Hepatocyte growth factor receptor (Homo sapiens), P08581 [M1250T]; details: Compound concentration 1000.0 nM
[7] = target: Cyclin-dependent kinase 11B (Homo sapiens) (UniProt P21127); details: Compound concentration 1000.0 nM
[8] = target: Serine/threonine-protein kinase WNK1 (Homo sapiens) (UniProt Q9H4A3); details: Compound concentration 1000.0 nM
[9] = target: Insulin receptor (Homo sapiens) (UniProt P06213); details: Compound concentration 1000.0 nM
[10] = target: D(4) dopamine receptor (Homo sapiens) (UniProt P21917); details: Compound concentration 10.0 uM
[11] = system: Epidermal growth factor receptor (Homo sapiens), P00533 [L861Q]; details: Compound concentration 1000.0 nM
[12] = target: Macrophage-stimulating protein receptor (Homo sapiens) (UniProt Q04912); details: Compound concentration 1000.0 nM
Macrophage-stimulating protein receptor (Homo sapiens), sequence (Q04912 25-304 limits assumed): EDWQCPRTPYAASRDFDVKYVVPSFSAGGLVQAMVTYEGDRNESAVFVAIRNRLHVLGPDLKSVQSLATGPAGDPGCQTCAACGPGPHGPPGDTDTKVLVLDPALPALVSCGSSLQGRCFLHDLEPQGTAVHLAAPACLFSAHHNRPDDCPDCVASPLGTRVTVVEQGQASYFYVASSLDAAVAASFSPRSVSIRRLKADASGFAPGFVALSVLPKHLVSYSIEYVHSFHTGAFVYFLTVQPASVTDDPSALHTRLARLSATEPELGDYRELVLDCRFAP
Macrophage-stimulating protein receptor (Homo sapiens), sequence (Q04912 310-1400 limits assumed): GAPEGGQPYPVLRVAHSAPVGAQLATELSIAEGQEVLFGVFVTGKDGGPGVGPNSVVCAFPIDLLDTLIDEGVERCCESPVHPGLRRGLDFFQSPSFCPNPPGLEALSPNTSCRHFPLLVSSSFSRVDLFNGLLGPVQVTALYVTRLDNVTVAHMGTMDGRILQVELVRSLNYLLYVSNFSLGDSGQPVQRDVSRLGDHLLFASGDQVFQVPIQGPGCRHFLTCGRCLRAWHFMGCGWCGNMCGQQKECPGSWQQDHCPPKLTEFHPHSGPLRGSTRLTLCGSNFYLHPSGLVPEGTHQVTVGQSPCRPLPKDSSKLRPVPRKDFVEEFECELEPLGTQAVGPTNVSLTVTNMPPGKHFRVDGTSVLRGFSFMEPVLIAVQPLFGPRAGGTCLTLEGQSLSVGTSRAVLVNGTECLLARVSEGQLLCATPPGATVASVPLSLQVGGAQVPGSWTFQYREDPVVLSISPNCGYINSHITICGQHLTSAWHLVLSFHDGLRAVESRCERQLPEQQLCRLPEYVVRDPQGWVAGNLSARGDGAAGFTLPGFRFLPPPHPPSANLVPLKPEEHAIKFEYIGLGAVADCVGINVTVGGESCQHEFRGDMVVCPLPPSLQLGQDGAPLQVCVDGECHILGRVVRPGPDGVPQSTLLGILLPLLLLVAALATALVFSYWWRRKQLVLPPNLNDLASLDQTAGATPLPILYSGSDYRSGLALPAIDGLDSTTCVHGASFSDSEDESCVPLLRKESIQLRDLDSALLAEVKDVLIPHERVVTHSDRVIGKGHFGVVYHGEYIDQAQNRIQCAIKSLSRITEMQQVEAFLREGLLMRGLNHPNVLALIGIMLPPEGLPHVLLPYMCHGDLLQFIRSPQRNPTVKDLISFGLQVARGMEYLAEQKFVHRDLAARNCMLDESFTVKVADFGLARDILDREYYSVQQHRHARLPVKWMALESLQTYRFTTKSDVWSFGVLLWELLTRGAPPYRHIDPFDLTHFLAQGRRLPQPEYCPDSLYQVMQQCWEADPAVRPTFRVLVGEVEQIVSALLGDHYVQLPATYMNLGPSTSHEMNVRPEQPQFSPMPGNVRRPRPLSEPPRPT

[13] = target: Cyclin-dependent kinase 15 (Homo sapiens) (UniProt Q96Q40); details: Compound concentration 1000.0 nM
[14] = system: Tyrosine-protein kinase ABL1 (Homo sapiens), P00519 [F317L]; details: Compound concentration 1000.0 nM
[15] = target: Transient receptor potential cation channel subfamily M member 6 (Homo sapiens) (UniProt Q9BX84); details: Compound concentration 1000.0 nM
[16] = target: Wee1-like protein kinase 2 (Homo sapiens) (UniProt P0C1S8); details: Compound concentration 1000.0 nM
Wee1-like protein kinase 2 (Homo sapiens), sequence (P0C1S8 whole entry, looked up): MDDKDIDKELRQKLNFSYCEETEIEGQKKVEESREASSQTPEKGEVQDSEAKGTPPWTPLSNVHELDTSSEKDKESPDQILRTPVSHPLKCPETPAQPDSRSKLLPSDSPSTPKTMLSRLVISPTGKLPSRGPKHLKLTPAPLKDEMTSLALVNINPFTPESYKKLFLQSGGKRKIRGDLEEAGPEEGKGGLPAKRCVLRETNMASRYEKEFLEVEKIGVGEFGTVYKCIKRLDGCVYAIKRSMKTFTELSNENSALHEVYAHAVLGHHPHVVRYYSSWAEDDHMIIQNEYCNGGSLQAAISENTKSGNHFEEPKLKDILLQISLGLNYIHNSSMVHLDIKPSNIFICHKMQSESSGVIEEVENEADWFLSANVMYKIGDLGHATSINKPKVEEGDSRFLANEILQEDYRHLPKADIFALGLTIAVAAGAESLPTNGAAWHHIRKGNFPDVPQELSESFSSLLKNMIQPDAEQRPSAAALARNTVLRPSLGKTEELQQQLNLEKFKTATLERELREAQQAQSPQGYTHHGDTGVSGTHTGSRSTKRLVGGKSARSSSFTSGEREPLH

[17] = target: Serine/threonine-protein kinase Nek2 (Homo sapiens) (UniProt P51955); details: Compound concentration 1000.0 nM
[18] = target: Receptor-interacting serine/threonine-protein kinase 2 (Homo sapiens) (UniProt O43353); details: Compound concentration 1000.0 nM
[19] = target: Phosphatidylinositol 4,5-bisphosphate 3-kinase catalytic subunit beta isoform (Homo sapiens) (UniProt P42338); details: Compound concentration 1000.0 nM
[20] = target: Serine/threonine-protein kinase DCLK3 (Homo sapiens) (UniProt Q9C098); details: Compound concentration 1000.0 nM
[21] = target: Protein kinase C iota type (Homo sapiens) (UniProt P41743); details: Compound concentration 1000.0 nM
Protein kinase C iota type (Homo sapiens), sequence (P41743 whole entry): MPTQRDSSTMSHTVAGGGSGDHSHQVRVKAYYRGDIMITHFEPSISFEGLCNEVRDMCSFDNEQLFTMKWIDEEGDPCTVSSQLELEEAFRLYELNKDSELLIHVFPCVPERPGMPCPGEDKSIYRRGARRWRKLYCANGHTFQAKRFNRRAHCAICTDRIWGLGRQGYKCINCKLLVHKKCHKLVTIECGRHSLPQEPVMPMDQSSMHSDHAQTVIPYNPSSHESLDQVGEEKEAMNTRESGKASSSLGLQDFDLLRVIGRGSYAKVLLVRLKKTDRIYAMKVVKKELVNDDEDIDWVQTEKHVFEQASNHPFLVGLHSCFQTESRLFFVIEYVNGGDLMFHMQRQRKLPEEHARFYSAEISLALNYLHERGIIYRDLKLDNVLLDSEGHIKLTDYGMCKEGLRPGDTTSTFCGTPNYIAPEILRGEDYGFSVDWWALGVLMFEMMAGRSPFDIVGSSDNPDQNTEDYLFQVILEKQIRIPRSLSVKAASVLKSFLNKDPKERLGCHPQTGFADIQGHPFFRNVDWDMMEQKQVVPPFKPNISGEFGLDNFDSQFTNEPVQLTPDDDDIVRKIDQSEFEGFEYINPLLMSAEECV

[22] = target: Tyrosine-protein kinase Yes (Homo sapiens) (UniProt P07947); details: Compound concentration 1000.0 nM
[23] = target: cAMP-dependent protein kinase catalytic subunit alpha (Homo sapiens) (UniProt P17612); details: Compound concentration 1000.0 nM
[24] = system: Epidermal growth factor receptor (Homo sapiens), P00533 [UNDEFINED MUTATION]; details: Compound concentration 1000.0 nM
[25] = target: Membrane-associated tyrosine- and threonine-specific cdc2-inhibitory kinase (Homo sapiens) (UniProt Q99640); details: Compound concentration 1000.0 nM
[26] = target: Serine/threonine-protein kinase PLK4 (Homo sapiens) (UniProt O00444); details: Compound concentration 1000.0 nM
[27] = target: Mitogen-activated protein kinase 8 (Homo sapiens) (UniProt P45983); details: Compound concentration 1000.0 nM
Mitogen-activated protein kinase 8 (Homo sapiens), sequence (P45983 whole entry): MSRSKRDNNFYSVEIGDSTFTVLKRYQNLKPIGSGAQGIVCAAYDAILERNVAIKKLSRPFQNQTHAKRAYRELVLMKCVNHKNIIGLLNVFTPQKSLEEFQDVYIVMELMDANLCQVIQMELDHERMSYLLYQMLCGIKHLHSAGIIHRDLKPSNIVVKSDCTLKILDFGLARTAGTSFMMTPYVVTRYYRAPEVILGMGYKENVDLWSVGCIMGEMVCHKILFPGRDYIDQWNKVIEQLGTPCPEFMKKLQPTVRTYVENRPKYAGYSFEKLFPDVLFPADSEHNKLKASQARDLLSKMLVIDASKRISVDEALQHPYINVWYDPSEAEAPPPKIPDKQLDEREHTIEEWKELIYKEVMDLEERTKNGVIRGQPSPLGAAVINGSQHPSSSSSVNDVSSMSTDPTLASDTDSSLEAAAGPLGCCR

[28] = target: Serine/threonine-protein kinase 32C (Homo sapiens) (UniProt Q86UX6); details: Compound concentration 1000.0 nM
[29] = target: Phosphorylase b kinase gamma catalytic chain, skeletal muscle/heart isoform (Homo sapiens) (UniProt Q16816); details: Compound concentration 1000.0 nM
Phosphorylase b kinase gamma catalytic chain, skeletal muscle/heart isoform (Homo sapiens), sequence (Q16816 whole entry, looked up, canonical isoform): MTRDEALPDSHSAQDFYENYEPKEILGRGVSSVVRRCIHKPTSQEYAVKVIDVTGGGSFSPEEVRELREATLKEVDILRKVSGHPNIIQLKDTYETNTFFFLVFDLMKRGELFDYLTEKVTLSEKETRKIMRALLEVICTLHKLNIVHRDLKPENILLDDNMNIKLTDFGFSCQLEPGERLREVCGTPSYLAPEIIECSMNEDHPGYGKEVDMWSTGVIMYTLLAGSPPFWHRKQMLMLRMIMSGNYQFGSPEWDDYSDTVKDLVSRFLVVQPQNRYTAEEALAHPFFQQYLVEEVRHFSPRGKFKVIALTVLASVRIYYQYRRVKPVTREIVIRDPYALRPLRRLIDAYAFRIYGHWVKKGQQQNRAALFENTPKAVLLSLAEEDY

[30] = target: Serine/threonine-protein kinase Nek10 (Homo sapiens) (UniProt Q6ZWH5); details: Compound concentration 1000.0 nM
[31] = target: Mast/stem cell growth factor receptor Kit (Homo sapiens) (UniProt P10721); details: Compound concentration 1000.0 nM
Mast/stem cell growth factor receptor Kit (Homo sapiens), sequence (P10721 whole entry): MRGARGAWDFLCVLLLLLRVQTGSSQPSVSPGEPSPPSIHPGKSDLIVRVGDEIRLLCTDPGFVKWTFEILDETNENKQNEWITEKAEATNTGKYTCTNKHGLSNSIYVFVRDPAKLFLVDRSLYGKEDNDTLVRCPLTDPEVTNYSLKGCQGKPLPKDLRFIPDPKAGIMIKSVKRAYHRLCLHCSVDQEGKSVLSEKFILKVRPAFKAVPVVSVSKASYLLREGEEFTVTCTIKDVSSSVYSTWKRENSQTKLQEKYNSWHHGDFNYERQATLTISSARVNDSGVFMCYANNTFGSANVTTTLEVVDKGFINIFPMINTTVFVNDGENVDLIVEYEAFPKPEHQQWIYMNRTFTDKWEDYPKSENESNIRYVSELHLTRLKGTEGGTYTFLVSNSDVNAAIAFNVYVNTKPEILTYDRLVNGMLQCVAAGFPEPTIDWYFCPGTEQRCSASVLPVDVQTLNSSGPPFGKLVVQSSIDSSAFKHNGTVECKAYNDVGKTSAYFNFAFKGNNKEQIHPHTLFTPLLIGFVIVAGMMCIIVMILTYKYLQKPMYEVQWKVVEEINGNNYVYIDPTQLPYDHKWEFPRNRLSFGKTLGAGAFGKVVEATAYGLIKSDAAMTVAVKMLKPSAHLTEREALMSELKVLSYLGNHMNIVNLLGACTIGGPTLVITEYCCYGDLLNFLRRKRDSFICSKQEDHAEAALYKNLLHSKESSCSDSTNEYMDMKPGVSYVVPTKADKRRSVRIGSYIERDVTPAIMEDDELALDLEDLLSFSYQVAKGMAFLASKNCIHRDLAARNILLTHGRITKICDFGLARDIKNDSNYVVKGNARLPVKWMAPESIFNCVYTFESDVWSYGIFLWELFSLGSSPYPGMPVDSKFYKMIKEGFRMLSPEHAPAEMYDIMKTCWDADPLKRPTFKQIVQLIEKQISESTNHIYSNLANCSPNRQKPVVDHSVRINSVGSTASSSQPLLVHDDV

[32] = target: Insulin-like growth factor 1 receptor (Homo sapiens) (UniProt P08069); details: Compound concentration 1000.0 nM
[33] = target: MAP kinase-interacting serine/threonine-protein kinase 1 (Homo sapiens) (UniProt Q9BUB5); details: Compound concentration 1000.0 nM
[34] = system: Receptor-type tyrosine-protein kinase FLT3 (Homo sapiens), P36888 [D835Y]; details: Compound concentration 1000.0 nM
[35] = target: Tyrosine-protein kinase Fer (Homo sapiens) (UniProt P16591); details: Compound concentration 1000.0 nM
[36] = target: Mitogen-activated protein kinase kinase kinase 2 (Homo sapiens) (UniProt Q9Y2U5); details: Compound concentration 1000.0 nM
[37] = target: Serine/threonine-protein kinase PAK 1 (Homo sapiens) (UniProt Q13153); details: Compound concentration 1000.0 nM
[38] = target: Testis-specific serine/threonine-protein kinase 1 (Homo sapiens) (UniProt Q9BXA7); details: Compound concentration 1000.0 nM
[39] = system: Proto-oncogene tyrosine-protein kinase receptor Ret (Homo sapiens), P07949 [V804L]; details: Compound concentration 1000.0 nM
[40] = target: Serine/threonine-protein kinase Nek6 (Homo sapiens) (UniProt Q9HC98); details: Compound concentration 1000.0 nM
[41] = target: Mast/stem cell growth factor receptor Kit (Homo sapiens) (UniProt P10721); details: Compound concentration 1000.0 nM; remark: listed apart in the source
[42] = target: Cyclin-dependent kinase 3 (Homo sapiens) (UniProt Q00526); details: Compound concentration 1000.0 nM
Cyclin-dependent kinase 3 (Homo sapiens), sequence (Q00526 whole entry, looked up): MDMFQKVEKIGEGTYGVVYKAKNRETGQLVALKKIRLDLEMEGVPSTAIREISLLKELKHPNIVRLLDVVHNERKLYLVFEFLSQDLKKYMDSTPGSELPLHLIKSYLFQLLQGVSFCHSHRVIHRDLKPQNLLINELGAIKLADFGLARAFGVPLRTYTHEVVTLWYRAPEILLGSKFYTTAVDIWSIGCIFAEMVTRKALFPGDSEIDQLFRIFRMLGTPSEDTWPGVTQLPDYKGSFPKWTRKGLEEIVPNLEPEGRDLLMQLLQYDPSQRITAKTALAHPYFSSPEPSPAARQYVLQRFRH

[43] = target: Ribosomal protein S6 kinase alpha-5 (Homo sapiens) (UniProt O75582); details: Compound concentration 1000.0 nM
[44] = target: Dual specificity mitogen-activated protein kinase kinase 7 (Homo sapiens) (UniProt O14733); details: Compound concentration 1000.0 nM
[45] = target: Tyrosine-protein kinase BTK (Homo sapiens) (UniProt Q06187); details: Compound concentration 1000.0 nM

Dual specificity mitogen-activated protein kinase kinase 1 (Homo sapiens), sequence (Q02750 whole entry): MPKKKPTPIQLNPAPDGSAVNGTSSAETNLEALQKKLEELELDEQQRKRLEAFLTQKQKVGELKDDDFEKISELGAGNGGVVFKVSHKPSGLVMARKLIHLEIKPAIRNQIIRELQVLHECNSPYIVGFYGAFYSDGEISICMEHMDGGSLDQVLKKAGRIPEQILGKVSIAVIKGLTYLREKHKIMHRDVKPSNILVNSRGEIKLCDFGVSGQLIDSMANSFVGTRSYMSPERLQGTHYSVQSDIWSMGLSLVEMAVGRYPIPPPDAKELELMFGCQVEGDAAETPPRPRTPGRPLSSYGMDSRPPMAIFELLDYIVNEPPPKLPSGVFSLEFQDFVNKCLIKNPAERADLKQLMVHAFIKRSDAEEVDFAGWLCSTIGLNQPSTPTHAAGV

Nc1cnc(N2CCc3cc(S(=O)(=O)Nc4c(F)cc(Cl)cc4F)cc(N4CCCC4=O)c32)nc1
inactive: residual activity [1] 92% | residual activity [2] 75% | residual activity [3] 100% | residual activity [4] 100% | residual activity [5] 100% | residual activity [6] 100% | residual activity [7] 100% | residual activity [8] 100% | residual activity [9] 89% | inhibition [10] -5.02% | residual activity [11] 100% | residual activity [12] 98% | residual activity [13] 80% | residual activity [14] 99% | residual activity [15] 93% | residual activity [16] 93% | residual activity [17] 89% | residual activity [18] 53% | residual activity [19] 87% | residual activity [20] 85% | residual activity [21] 100% | residual activity [22] 100% | residual activity [23] 100% | residual activity [24] 63% | residual activity [25] 99% | residual activity [26] 100% | residual activity [27] 78% | residual activity [28] 100% | residual activity [29] 71% | residual activity [30] 100% | residual activity [31] 100% | residual activity [32] 90% | residual activity [33] 98% | residual activity [34] 100% | residual activity [35] 100% | residual activity [36] 100% | residual activity [37] 89% | residual activity [38] 100% | residual activity [39] 99% | residual activity [40] 100% | residual activity [41] 100% | residual activity [42] 100% | residual activity [43] 95% | residual activity [44] 100% | residual activity [45] 100%

Cn1nc(C(F)(F)F)cc1-c1cnc(N2CCc3cc(S(=O)(=O)Nc4c(F)cc(Cl)cc4F)cc(N4CCCC4=O)c32)nc1 [TP-020]
inactive: residual activity [1] 75% | residual activity [2] 99% | residual activity [3] 95% | residual activity [4] 78% | residual activity [5] 100% | residual activity [6] 94% | residual activity [7] 100% | residual activity [8] 98% | residual activity [9] 89% | inhibition [10] 9.09% | residual activity [11] 100% | residual activity [12] 100% | residual activity [13] 100% | residual activity [14] 60% | residual activity [15] 79% | residual activity [16] 100% | residual activity [17] 100% | residual activity [18] 82% | residual activity [19] 85% | residual activity [20] 86% | residual activity [21] 94% | residual activity [22] 99% | residual activity [23] 100% | residual activity [24] 100% | residual activity [25] 93% | residual activity [26] 77% | residual activity [27] 100% | residual activity [28] 100% | residual activity [29] 98% | residual activity [30] 80% | residual activity [31] 94% | residual activity [32] 94% | residual activity [33] 72% | residual activity [34] 100% | residual activity [35] 100% | residual activity [36] 95% | residual activity [37] 100% | residual activity [38] 100% | residual activity [39] 100% | residual activity [40] 100% | residual activity [41] 91% | residual activity [42] 91% | residual activity [43] 86% | residual activity [44] 98% | residual activity [45] 85%
